# According to the NIST ThermoML archive (doi:10.1016/j.jct.2012.02.006):
# Numbers after ± are expanded uncertainties.
# Assay: molar heat capacity at constant pressure
# Settings: 298.15 K; 101.33 kPa; Liquid; Small sample (50 mg) DSC
row,Compound,molar heat capacity at constant pressure [J/K/mol]
1,CCCCCC[C@@H](O)C/C=C\CCCCCCCC(=O)O [[R]-12-hydroxy-cis-9-octadecenoic acid],626.77 ± 63
2,CCCCCC[C@@H](O)CC=CCCCCCCCC(=O)OC [[R]-methyl 12-hydroxy-9-octadecenoate],696.53 ± 70
